Assay results as given in patent publication US9555036B2, “Pyrazolopyrimidine compounds” (GlaxoSmithKline LLC, priority 2012, dated 2017).
Where a name gives a salt, the structure may show the parent alone.

System: TNF-α
Assay: Induction of TNF-α using fresh human whole blood (WB)
Type: cell-based
Settings: three donors, overnight incubation, cytokine as % of 2 μM resiquimod control, read-out: mean pEC50 for TNF-α (converted)
Experimental: Assay for the Induction of Interferon-α and TNF-α Using Fresh Human Whole Blood (WB) Compound Preparation
Compounds were prepared at 100× required concentration in DMSO in flat-bottom microtitre plates at a volume of 1.5 μL. Columns 1-10 contained a 1 in 4 serial dilution of the test compound. Included on each plate was a serial dilution of the TLR7/8 agonist resiquimod as a standard and Column 11 contained 1.5 μl of 200 μM resiquimod (giving a 2 μM final concentration, used to define the approximate maximal response to resiquimod). Each compound was assayed in duplicate for each donor.
Incubation and Assays for Interferon-α and TNF-α
Blood samples from three human donors were collected into sodium heparin (10 U/ml). 150 μl of whole Blood was dispensed into Col 1 to 11 of assay plates containing 1.5 μl of test compound or standard in DMSO. Plates were placed in an incubator overnight (37° C., 95% air, 5% CO2). Following the overnight incubation, plates were removed from the incubator & mixed on an orbital shaker for approximately 1 minute. 100 μl of 0.9% saline was added to each well and the plates mixed again on an orbital shaker. Plates were then centrifuged (2500 rpm, 10 mins), after which a sample of plasma was removed using a Biomek FX and assayed for both IFN-α and TNF-α using the MSD (Mesoscale Discovery) electrochemiluminescence assay platform. The IFN-α assay was carried out similarly to that described above. The TNF-α assay was carried out as per kit instructions (Cat No K111BHB).
Cytokine released was expressed as a percentage of the 2 μM resiquimod control (column 11). This percentage was plotted against compound concentration and the pEC50 for the response determined by non-linear least squares curve fitting. For the IFN-α responses, generally a 4 parameter logistic model was selected. For the TNF responses where a clear maximum response was obtained (i.e. a well defined plateau in the response was observed) then a 4 parameter model was generally used. If the upper asymptote of the curve wasn't well defined then the curve fitting was generally constrained to a maximal response of 100% (i.e. to the response to 2 μM resiquimod) or to the response of the highest concentration tested if this was greater than the resiquimod response. Some curves were bell shaped for one or both cytokines and the cytokine data on the down slope of the bell shaped response (i.e. concentrations above those giving the maximal response) were generally excluded from the fit, usually with the exception of the concentration immediately above the peak response. Curve fitting thus concentrated on the up slope of the dose response curve.

EC50 [µM] | SMILES
≤ 3.98 | CCCCc1nc(N)c2[nH]nc(CCCCCN3CCCC3)c2n1 [Example 6, 5-Butyl-3-(5-(pyrrolidin-1-yl)pentyl)-1H-pyrazolo[4,3-d]pyrimidin-7-amine]
≤ 3.98 | CCCCc1nc(N)c2[nH]nc(CCCCCN3CCC(F)CC3)c2n1 [Example 18, 5-Butyl-3-(5-(4-fluoropiperidin-1-yl)pentyl)-1H-pyrazolo[4,3-d]pyrimidin-7-amine]
≤ 3.98 | CCCCc1nc(N)c2[nH]nc(CCCCCCN3CCC(O)CC3)c2n1 [Example 15, 1-(6-(7-Amino-5-butyl-1H-pyrazolo[4,3-d]pyrimidin-3-yl)hexyl)piperidin-4-ol]
≤ 3.98 | CCCCc1nc(N)c2[nH]nc(CCCCCN3CCCCCC3)c2n1 [Example 10, 3-(5-(Azepan-1-yl)pentyl)-5-butyl-1H-pyrazolo[4,3-d]pyrimidin-7-amine]
≤ 3.98 | CCCCc1nc(N)c2[nH]nc(CCCCCCN3CCC(F)CC3)c2n1 [Example 17, 5-Butyl-3-(6-(4-fluoropiperidin-1-yl)hexyl)-1H-pyrazolo[4,3-d]pyrimidin-7-amine formate]
≤ 3.98 | CCCCc1nc(N)c2[nH]nc(CCCCCCN3CCCCC3)c2n1 [Example 1, 5-Butyl-3-(6-(piperidin-1-yl)hexyl)-1H-pyrazolo[4,3-d]pyrimidin-7-amine formate]
≤ 3.98 | CCCCc1nc(N)c2[nH]nc(CCCCCCN3CC[C@H](F)C3)c2n1 [Example 11, (S)-5-Butyl-3-(6-(3-fluoropyrrolidin-1-yl)hexyl)-1H-pyrazolo[4,3-d]pyrimidin-7-amine]
≤ 3.98 | CCCCc1nc(N)c2[nH]nc(CCCCCN3CCCCC3)c2n1 [Example 5, 5-Butyl-3-(5-(piperidin-1-yl)pentyl)-1H-pyrazolo[4,3-d]pyrimidin-7-amine]
≤ 3.98 | CCCCc1nc(N)c2[nH]nc(CCCCCCN3CC[C@@H](F)C3)c2n1 [Example 13, (R)-5-Butyl-3-(6-(3-fluoropyrrolidin-1-yl)hexyl)-1H-pyrazolo[4,3-d]pyrimidin-7-amine formate]
≤ 3.98 | CCCCc1nc(N)c2[nH]nc(CCCCCN3CC[C@@H](F)C3)c2n1 [Example 14, (R)-5-Butyl-3-(5-(3-fluoropyrrolidin-1-yl)pentyl)-1H-pyrazolo[4,3-d]pyrimidin-7-amine]
≤ 3.98 | CCCCc1nc(N)c2[nH]nc(CCCCCCCN3CCCC3)c2n1 [Example 8, 5-Butyl-3-(7-(pyrrolidin-1-yl)heptyl)-1H-pyrazolo[4,3-d]pyrimidin-7-amine]
≤ 3.98 | CCCCc1nc(N)c2[nH]nc(CCCCCN3CCC(O)CC3)c2n1 [Example 16, 1-(5-(7-Amino-5-butyl-1H-pyrazolo[4,3-d]pyrimidin-3-yl)pentyl)piperidin-4-ol]
≤ 3.98 | CCCCc1nc(N)c2[nH]nc(CCCCCCN3CCCCCC3)c2n1 [Example 9, 3-(6-(Azepan-1-yl)hexyl)-5-butyl-1H-pyrazolo[4,3-d]pyrimidin-7-amine]
≤ 3.98 | CCCCc1nc(N)c2[nH]nc(CCCCCCCN3CCCCC3)c2n1 [Example 7, 5-Butyl-3-(7-(piperidin-1-yl)heptyl)-1H-pyrazolo[4,3-d]pyrimidin-7-amine]
≤ 3.98 | CCCCc1nc(N)c2[nH]nc(CCCCCN3CC[C@H](F)C3)c2n1 [Example 12, (S)-5-Butyl-3-(5-(3-fluoropyrrolidin-1-yl)pentyl)-1H-pyrazolo[4,3-d]pyrimidin-7-amine]
≤ 3.98 | COCCc1nc(N)c2[nH]nc(CCCCCCN3CCCC3)c2n1 [Example 4, 5-(2-Methoxyethyl)-3-(6-(pyrrolidin-1-yl)hexyl)-1H-pyrazolo[4,3-d]pyrimidin-7-amine]
≤ 3.98 | COCCc1nc(N)c2[nH]nc(CCCCCCN3CCCCC3)c2n1 [Example 2, 5-(2-Methoxyethyl)-3-(6-(piperidin-1-yl)hexyl)-1H-pyrazolo[4,3-d]pyrimidin-7-amine]
